Measurements published in US20100152301A1, “Treatment of Viral Infections” (GOVERNMENT OF THE US, AS REPRESENTED BY THE SECRETARY, …, priority 2005, published 2010).

Assays:
HIV-1 integrase [1] = molecular target: T1, HIV-1 integrase (Human immunodeficiency virus type 1 group M subtype B, UniProt P04585); test: Integrase catalytic assay, 3′-processing (3′-P), 21 bp duplex substrate; type: biochemical; settings: In vitro IC50 21 bp substrate 3′-P
T1 construct: Expression and purification of the recombinant HIV-1 integrase in Escherichia coli; made in house; host or cells: Escherichia coli
Procedure: (§1) Recombinant HIV integrase and oligonucleotide substrates. Expression and purification of the recombinant HIV-1 integrase in Escherichia coli were performed according to (Leh et al., 2000; Marchand et al., 2001) with addition of 10% glycerol to all buffers. The preparation of the Q148C/SSS-mutant integrase will be described elsewhere (Johnson et al., 2005). The oligonucleotide substrates, except those used for the disulfide crosslinking (FIG. 5A), were purchased from Integrated DNA Technologies, Inc. (Coraville, Iowa) and purified by polyacrylamide gel. The single-stranded oligonucleotides were 5′-end labeled with [γ^32P]-ATP (Perkin Elmer, Wellesley, M A) and T4 polynucleotide kinase (New England BioLabs, Ipswich, M A). Unincorporated nucleotide was removed using mini Quick Spin Oligo columns (Roche Diagnostics, Indianapolis, Ind.). Substrates were obtained after annealing with complementary non-labeled oligonucleotides. The thiol-modified substrate (FIG. 5A) for disulfide crosslinking assay was synthesized as essentially described by W. Santos and G. Verdine (Department of Chemistry and Chemical Biology, Harvard University, Cambridge, Mass.) (They and Verdine, 2002).
(§2) Integrase catalytic assays. Reactions were performed in 10 μl with 300 nM of recombinant IN, 20 nM of the 5′-end [^32P]-labeled oligonucleotide substrates and inhibitors at the indicated concentrations. 10% DMSO was included in controls. Reactions were incubated for 40 min at 37° C. in a buffer containing a final concentration of 25 mM MOPS, pH 7.2, 25 mM NaCl, 14.3 mM β-mercaptoethanol and 7.5 mM of divalent cations (MgCl2 or MnCl2 as indicated). Reactions were stopped by addition of 20 μl loading dye (10 mM EDTA, 98% deionized formamide, 0.025% xylene cyanol and 0.025% bromophenol blue). Reactions were heated at 95° C. for 1 min before electrophoresis in 20% polyacrylamide-7 M urea gels. Gels were dried and reaction products were visualized and quantitated with a Molecular Dynamics PhosphorImager (Sunnyvale, Calif.). Densitometric analyses were performed using ImageQuant from the Molecular Dynamics software. The concentrations at which enzyme activity was reduced by 50% (IC50), was determined using “Prism” software (GraphPad Software, San Diego, Calif.) for nonlinear regression to fit dose-response data to logistic curve models.

HIV-1 integrase [2] = molecular target: T1, HIV-1 integrase; test: Integrase catalytic assay, strand transfer (ST), 21 bp duplex substrate; type: biochemical; settings: for IC50: In vitro IC50 21 bp substrate ST
Procedure: as §1, §2

HIV-1 integrase [3] = molecular target: T1, HIV-1 integrase; test: Strand transfer assay with preprocessed (19/21) DNA substrate; type: biochemical; settings: In vitro IC50 Preprocessed substrate
Procedure: as §1, §2

HIV-1 integrase [4] = molecular target: T1, HIV-1 integrase; test: Disintegration assay with Y-oligomer substrate; type: biochemical; settings: for IC50: In vitro IC50 Disintegration
Procedure: as §1, §2

[5] = molecular target: T2, Q148C/SSS-mutant integrase (Human immunodeficiency virus type 1 group M subtype B, UniProt P04585, C1203S/C1212S/C1427S/Q1295C); test: biochemical; type: binding, HIV-1
T2 construct: 10 μM recombinant Q148C/SSS-mutant integrase was incubated with 10 μM DNA substrate; made in house
Procedure: Briefly, 10 μM recombinant Q148C/SSS-mutant integrase was incubated with 10 μM DNA substrate (FIG. 5A) containing tethered thiols in the presence of 20 mM Tris, pH 7.4, 10% glycerol and 7.5 mM of divalent cations (MgCl2 or MnCl2 as indicated) for 20 min at 37° C. Reactions were stopped by the addition of 20 mM methylmethanethiosulfonate (capping reagent). Non-reducing gel loading buffer (100 mM Tris-HCl, pH 6.8, 4% SDS, 0.2% bromophenol blue, 20% glycerol) was added and samples were heated at 95° C. before loading onto 16% tricine gels (Invitrogen, Carlsbad, Calif.). Gels were stained with Microwave Blue according to manufacturer's recommendations (Protiga, Frederick, Md.).
DNA (20 nM) containing a [5′-^32P]-label on one strand and a thiol-modified cytosine on the other strand was added and reactions were capped with methylmethanethiosulfonate at 1 minute. Following capping, non-reducing gel loading buffer (100 mM Tris-HCl, pH 6.8, 4% SDS, 0.2% bromophenol blue, 20% glycerol) was added and samples were directly loaded on 16% tricine gels (Invitrogen, Carlsbad, Calif.). Gels were dried and reaction products were quantitated using the same way as described above.

HIV-1 integrase [6] = molecular target: T1, HIV-1 integrase; test: Integrase binding to HIV DNA, Schiff base crosslinking assay; settings: Mg2+
Procedure: Integrase binding to HIV DNA using the shiff-base assay. The shiff-base assay was performed as described (Mazumder and Pommier, 1995). Briefly, 300 nM recombinant IN was incubated with inhibitors (at the indicated concentration) for 15 min at 37° C. Subsequently, 20 nM of 5′-end labeled substrate containing the abasic oligonucleotide (FIG. 6A) was added for 10 min at room temperature in reaction buffer described above for integrase catalytic assays. A freshly prepared solution of sodium borohydride (0.1 M final concentration) was added for 5 min. An equal volume (10 μl) of 2×SDS-polyacrylamide gel electrophoresis buffer (Invitrogen, Carlsbad, Calif.) was added in each reaction. Reaction products were heated at 95° C. for 1 min before analysis by electrophoresis in a 12-20% polyacrylamide gels (Invitrogen, Calif., USA). Gels were dried and reaction products were quantitated using the same method as described above.

HIV-1 protease = HIV-1 protease (Human immunodeficiency virus type 1 group M subtype B, UniProt P04585); test: Fluorimetric HIV-1 protease assay; type: biochemical; settings: concentration up to 25 μM; data not shown
Procedure: Fluorimetric HIV-1 protease assay. The fluorescent HIV-1 protease substrate (RE-(EDANS)-SQNYPIVQK-(DABCYL)-R) was obtained from Molecular Probes, Inc. (Eugene, Oreg.). Substrate and buffer were pre-warmed at 37° C. for at least 20 min before use. The protease (25 nM final concentration) was incubated in the manufacturer's recommended assay buffer (100 mM Na acetate, 1M NaCl, 1 mM EDTA, 1 mM DTT, 10% DMSO and 1 mg ml^−1 BSA pH 4.7) at 37° C. in the presence of 1-25 μM NSC 18806 for 10 min and then added to the warmed substrate solution (40 μM) containing the different treatments to initiate the reaction. Acetyl pepstatin (Sigma, St. Louis, Mo.) at 20 nM was used a positive HIV-1 protease inhibitor control. The total assay volume was 100 µL. Fluorescence was monitored for 30 min in a fluorescence microplate reader (FMAX, Molecular Devices, Sunnyvale, Calif.) with 355 nm excitation and 460 nm emission filters and the rate of reactions compared for the different conditions.

HIV-1IIIB = test: Inhibition of HIV-induced cytopathic effect in MT-2 cell culture; type: cell-based; settings: MT-2 cells
Procedure: (§3) Inhibition of HIV-induced cytopathic effect in cell culture. The MT-2 cells were grown in RPMI-1640 medium with GlutaMAX™, supplemented with 10% (v/v) heat-inactivated fetal bovine serum (both from Gibco, Invitrogen corporation, Carlsbad). The cells were maintained at 37° C. in a humidified atmosphere of 5% CO2 in air. Every 4-5 days, cells were spun down and seeded at 2×10^5 cells/ml in new cell culture flasks. HIV ([…] isolate) was obtained from Advanced Biotechnology Incorporated (Columbia, Md.). The virus stock [3,2×10^4 CCID50 (50% cell culture infective dose) per ml as determined for MT-2 cells] was stored at −70° C. until used. Stock solutions of compounds were diluted using medium directly into 96-well assay plate (Costar, Corning inc, Corning, N.Y.).
(§4) Cells were then infected with 100 CCID50 or mock-infected. The cell cultures were incubated at 37° C. in a humidified atmosphere of 5% CO2 in air. […] The percent cell viability in drug treated uninfected and infected cells was determined based on the viability of the uninfected control drug treated cells. The concentration of drug required to inhibit approximately 50% of the HIV-1 induced cytotoxicity was calculated from the plot of compound concentration verses the percent viable cells.

MT-2 cells = type: cell-based; settings: human, 4 days
Procedure: as §3, §4

Structure (SMILES): CC(C)c1ccc(O)c(=O)c(O)c1 [NSC 18806, β-thujaplicinol]
- IC50 (HIV-1 integrase [1]; Mg2+): 117 ± 7.1 µM
- IC50 (HIV-1 integrase [1]; Mn2+): 24.6 µM
- IC50 for 3′-P relative to IC50 for ST (HIV-1 integrase [2]; 21 bp duplex, in the presence of either Mg2+ or Mn2+): approximately 5 fold
- IC50 (HIV-1 integrase [2]; Mg2+): 21.6 ± 3.4 µM
- IC50 (HIV-1 integrase [2]; Mn2+): 4.8 ± 2.5 µM
- IC50 (HIV-1 integrase [3]; Mg2+): 18.1 ± 6.2 µM
- IC50 (HIV-1 integrase [3]; Mn2+): 5 µM
- IC50 (HIV-1 integrase [4]; Mg2+): > 333 µM
- IC50 (HIV-1 integrase [4]; Mn2+): 23.8 µM
- inhibition of disintegration (in words) (HIV-1 integrase [4]; Mg2+): inability of NSC 18806 to inhibit disintegration
- inhibition of disintegration (in words) (HIV-1 integrase [4]; Mn2+): only inhibited in the presence of Mn^2+ at high drug concentration
- inhibition at 333 µM (HIV-1 integrase [4]; read-out: inhibition activity, disintegration): 5 to 20%
- IC50 [5]: 32 µM
- inhibition of integrase-DNA disulfide-crosslinking (in words) ([5]; drug 1 mM, Mg2+ or Mn2+ (FIG. 5B)): metal-dependent inhibition
- inhibition of Schiff base IN-DNA crosslinking (in words) (HIV-1 integrase [6]): did not block
- inhibition of HIV-1 protease (in words) (HIV-1 protease): failed to inhibit HIV-1 protease
- IC50 (HIV-1IIIB; Human immunodeficiency virus 1, MT2, 96 h, four days after infection, read-out: estimated IC50, protection of infected cells from HIV-induced cytopathic effect): ~12 µM
- activity in HIV infectivity assay (in words) (HIV-1IIIB): exhibits cytoprotective activity
- concentrations with presence of toxicity (MT-2 cells): ≥ 12 µM
